Source: article PMC10537087, “Evaluating Known Zika Virus NS2B-NS3 Protease Inhibitor Scaffolds via In Silico Screening and Biochemical Assays” (Pharmaceuticals, 2023)
Where two headings read alike, the source gives them in different places.

Key:
[1] = Cytotoxicity MTT assay (CC50); conditions: African green monkey, Vero (ATCC CCL-81) cells
Experimental: (§1) The Vero (ATCC® CCL-81™) cell line was used for the cytotoxicity assays and antiviral activity evaluation against ZIKV. Cells were cultured in Eagle’s minimum essential media (MEM) (Cultilab, Campinas, Brazil). The media was supplemented with 5% fetal bovine serum (FBS) (Cultilab, Brazil), in addition to 100 IU/mL penicillin (Cellofarm, Rio De Janeiro, Brazil), 100 μg/mL streptomycin (Merck, Darmstadt, Germany), and 0.25 μg/mL amphotericin B (Cultilab, Brazil).
(§2) Cells were seeded in 96-well microplates (4.0 × 10^4 cells per well) and incubated at 37 °C and 5% CO2 for 24 h. Then, 200 µL of MEM with 1% FBS containing a serial dilution of the compounds (100 to 12.5 µM) was added. As vehicle control, a serial dilution of DMSO was used. After 72 h of incubation under the same conditions, 100 μL of 3-(4,5-dimethylthiazol-2-yl)-2,5-diphenyltetrazolium bromide (MTT; ThermoFischer Scientific, Waltham, MA, USA) [76] diluted in MEM (0.5 mg/mL) was added to each well and incubated for 3 h. The media was removed, and 100 μL of DMSO was added to each well to solubilize formazan crystals and shaken for 20 min. The absorbance was read at 570 nm using a spectrophotometer (VersaMax, Molecular Devices, San Jose, CA, USA). The percentages of inhibition of cell viability were calculated as the ratio between the absorbance of the compound-treated cells and cells with only the vehicle. […] Linear regression (LR) was used for the analysis, considering results with r^2 > 0.9. All conditions were tested in triplicate and one independent assay (n = 3 data points).

[2] = tested on: Vero (ATCC CCL-81) cell line; test: Cytotoxicity MTT assay (CC50); conditions: Vero cells
Experimental: as §1, §2

ZIKV NS2B-NS3pro [3] = target: T1, ZIKV NS2B-NS3pro (Zika virus, UniProt A0A024B7W1, C1582S/C1645S/R1467A/R1531G); test: ZIKV NS2B-NS3pro inhibitory assay with fluorogenic substrate Bz-Nle-Lys-Lys-Arg-AMC; format: biochemical; conditions: for % ZIKV NS2B/NS3pro Inhibition [Enzyme] = 0.2 nM / % ZIKV NS2B/NS3pro Inhibition [Enzyme] = 2 nM: CHAPS 1 mM; for % ZIKV NS2B/NS3pro Inhibition (100 µM) 0.001% Triton: 0.001% Triton X-100, no Tween-20; for % ZIKV NS2B/NS3pro Inhibition (100 µM) 0.01% Triton: 0.01% Triton X-100, no Tween-20; for % ZIKV NS2B/NS3pro Inhibition (100 µM) BSA: 10 min pre-incubation with BSA 1 mg/mL before enzyme; for % ZIKV NS2B/NS3pro Inhibition (100 µM) Without Preincubation: no preincubation; for Hill Slope Replica 1 / Hill Slope Replica 2: from dose-response curve
[4] = Solubility in cruzain assay buffer; format: physicochemical; conditions: sodium acetate 0.1 M pH 5.5, β-mercaptoethanol 10 mM
ZIKV NS2B-NS3pro [5] = target: T1, ZIKV NS2B-NS3pro; conditions: cited from earlier work; for cause of inhibition after resynthesis: parallel study, ref [54]; for mode of inhibition: ref [33]
[6] = tested on: Vero (ATCC CCL-81) cell line; set-up: method as in Serafim et al. [64]; conditions: comparison control; ref Serafim et al. [64]; cited from earlier work
ZIKV (PE243) = tested on: ZIKV (PE243); set-up: method as in Serafim et al. [64]; conditions: comparison control, ref Serafim et al. [64]; cited from earlier work
[7] = compound 25 µM (close to IC50), enzyme 0.2 nM
[8] = compound 100 µM, 10 min preincubation
[9] = compound 100 µM, 10 min preincubation with enzyme, 0.005% Tween-20, enzyme 0.2 nM
[10] = compound 100 µM, 0.005% Tween-20
[11] = 0.005% Tween-20, enzyme 0.2 nM, substrate 44 µM, read-out: ZIKV NS2B/NS3pro IC50
[12] = one value per independent assay (two curves per compound), read-out: IC50 of the individual curves for NS2B-NS3pro inhibitors (Figure 3)

SMILES: Cc1ccc(S(=O)(=O)Nc2ccccc2C(=O)Nc2nc3ccccc3[nH]2)cc1 [Compound 7]
- CC50 at 72 h [1]: 32.8 ± 1.55 µM
- Cell viability as percentage of cell control (mean absorbance / CELL) ([2]; compound 12.5 µM): 64.4267
- Cell viability as percentage of cell control (mean absorbance / CELL) ([2]; compound 25 µM): 53.8262
- Cell viability as percentage of cell control (mean absorbance / CELL) ([2]; compound 50 µM): 38.9416
- Cell viability as percentage of cell control (mean absorbance / CELL) ([2]; compound 100 µM): 40.3696
- % ZIKV NS2B/NS3pro Inhibition [Enzyme] = 0.2 nM (ZIKV NS2B-NS3pro [3]; [7]): 87 ± 0.04%
- % ZIKV NS2B/NS3pro Inhibition [Enzyme] = 2 nM (ZIKV NS2B-NS3pro [3]; compound 25 µM (close to IC50)): 27 ± 6%
- % ZIKV NS2B/NS3pro Inhibition (100 µM) 0.001% Triton (ZIKV NS2B-NS3pro [3]; [8]): 88 ± 5%
- % ZIKV NS2B/NS3pro Inhibition (100 µM) 0.01% Triton (ZIKV NS2B-NS3pro [3]; [8]): 12 ± 17%
- % ZIKV NS2B/NS3pro Inhibition (100 µM) BSA (ZIKV NS2B-NS3pro [3]; compound 100 µM): 89 ± 7%
- % ZIKV NS2B/NS3pro Inhibition (100 µM) With Preincubation (ZIKV NS2B-NS3pro [3]; [9]): 100 ± 0%
- % ZIKV NS2B/NS3pro Inhibition (100 µM) Without Preincubation (ZIKV NS2B-NS3pro [3]; [10]): 90 ± 8%
- Hill Slope Replica 1 (ZIKV NS2B-NS3pro [3]): 2.014
- Hill Slope Replica 2 (ZIKV NS2B-NS3pro [3]): 1.056

SMILES: COc1cccc2sc(NC(=O)c3ccccc3CS(=O)(=O)c3ccccc3)nc12 [Compound 8]
- CC50 at 72 h [1]: 23.6 ± 1 µM
- Cell viability as percentage of cell control (mean absorbance / CELL) ([2]; compound 12.5 µM): 57.338
- Cell viability as percentage of cell control (mean absorbance / CELL) ([2]; compound 25 µM): 54.3981
- Cell viability as percentage of cell control (mean absorbance / CELL) ([2]; compound 50 µM): 21.2269
- Cell viability as percentage of cell control (mean absorbance / CELL) ([2]; compound 100 µM): 17.0602
- % ZIKV NS2B/NS3pro Inhibition (100 µM) Without Preincubation (ZIKV NS2B-NS3pro [3]; compound at 10 µM (footnote a), 0.005% Tween-20): 15 ± 11%
- % ZIKV NS2B/NS3pro Inhibition (100 µM) With Preincubation (ZIKV NS2B-NS3pro [3]; compound at 10 µM (footnote a, solubility limit), 10 min preincubation, 0.005% Tween-20, enzyme 0.2 nM): 8 ± 8%

SMILES: COc1cccc2nc(C(=O)c3ccccc3NS(=O)(=O)c3ccc(F)c(C)c3)[nH]c12 [Compound 12]
- CC50 at 72 h [1]: < 12.5 µM
- Cell viability as percentage of cell control (mean absorbance / CELL) ([2]; compound 12.5 µM): 28.1944
- Cell viability as percentage of cell control (mean absorbance / CELL) ([2]; compound 25 µM): 14.2593
- Cell viability as percentage of cell control (mean absorbance / CELL) ([2]; compound 50 µM): 9.861
- Cell viability as percentage of cell control (mean absorbance / CELL) ([2]; compound 100 µM): 10
- IC50 (ZIKV NS2B-NS3pro [3]; [11]): 5 ± 1 µM
- % ZIKV NS2B/NS3pro Inhibition [Enzyme] = 0.2 nM (ZIKV NS2B-NS3pro [3]; compound 10 µM (close to IC50), enzyme 0.2 nM): 94 ± 0.06%
- % ZIKV NS2B/NS3pro Inhibition [Enzyme] = 2 nM (ZIKV NS2B-NS3pro [3]; compound 10 µM (close to IC50)): 30 ± 10%
- % ZIKV NS2B/NS3pro Inhibition (100 µM) 0.001% Triton (ZIKV NS2B-NS3pro [3]; [8]): 90 ± 5%
- % ZIKV NS2B/NS3pro Inhibition (100 µM) 0.01% Triton (ZIKV NS2B-NS3pro [3]; [8]): 5 ± 7%
- % ZIKV NS2B/NS3pro Inhibition (100 µM) BSA (ZIKV NS2B-NS3pro [3]; compound 100 µM): 87 ± 18%
- % ZIKV NS2B/NS3pro Inhibition (100 µM) With Preincubation (ZIKV NS2B-NS3pro [3]; [9]): 100 ± 0%
- % ZIKV NS2B/NS3pro Inhibition (100 µM) Without Preincubation (ZIKV NS2B-NS3pro [3]; [10]): 91 ± 9%
- Hill Slope Replica 1 (ZIKV NS2B-NS3pro [3]): 1.517
- Hill Slope Replica 2 (ZIKV NS2B-NS3pro [3]): 1.742
- IC50 (ZIKV NS2B-NS3pro [3]; [12]): 6 µM

SMILES: Cc1cc(C(=O)c2ccccc2NS(=O)(=O)c2ccc(F)cc2)nn1-c1ccccc1 [Compound 13]
- solubility in the cruzain assay buffer [4]: insoluble
- CC50 at 72 h [1]: < 12.5 µM
- Cell viability as percentage of cell control (mean absorbance / CELL) ([2]; compound 12.5 µM): 41.6898
- Cell viability as percentage of cell control (mean absorbance / CELL) ([2]; compound 25 µM): 25.5093
- Cell viability as percentage of cell control (mean absorbance / CELL) ([2]; compound 50 µM): 21.6435
- Cell viability as percentage of cell control (mean absorbance / CELL) ([2]; compound 100 µM): 12.8704
- IC50 (ZIKV NS2B-NS3pro [3]; [11]): 28 ± 1 µM
- % ZIKV NS2B/NS3pro Inhibition [Enzyme] = 0.2 nM (ZIKV NS2B-NS3pro [3]; [7]): 43 ± 0.1%
- % ZIKV NS2B/NS3pro Inhibition [Enzyme] = 2 nM (ZIKV NS2B-NS3pro [3]; compound 25 µM (close to IC50)): 26 ± 10%
- % ZIKV NS2B/NS3pro Inhibition (100 µM) 0.001% Triton (ZIKV NS2B-NS3pro [3]; [8]): 100 ± 0%
- % ZIKV NS2B/NS3pro Inhibition (100 µM) 0.01% Triton (ZIKV NS2B-NS3pro [3]; [8]): 45 ± 9%
- % ZIKV NS2B/NS3pro Inhibition (100 µM) BSA (ZIKV NS2B-NS3pro [3]; compound 100 µM): 57 ± 15%
- % ZIKV NS2B/NS3pro Inhibition (100 µM) With Preincubation (ZIKV NS2B-NS3pro [3]; [9]): 95 ± 2%
- % ZIKV NS2B/NS3pro Inhibition (100 µM) Without Preincubation (ZIKV NS2B-NS3pro [3]; [10]): 100 ± 1%
- Hill Slope Replica 1 (ZIKV NS2B-NS3pro [3]): 5.057
- Hill Slope Replica 2 (ZIKV NS2B-NS3pro [3]): 5.334
- IC50 (ZIKV NS2B-NS3pro [3]; [12]): 29 µM

SMILES: COc1ccc(S(=O)(=O)Nc2ccccc2C(=O)Nc2nc3ccccc3s2)cc1 [LEE-2]
- cause of inhibition after resynthesis (ZIKV NS2B-NS3pro [5]): due to colloidal aggregation
- mode of inhibition (ZIKV NS2B-NS3pro [5]): competitive inhibitors

SMILES: COc1ccc(Cl)c2sc(NC(=O)c3ccccc3NS(=O)(=O)c3ccc(C)cc3)nc12 [LEE-3]
- cause of inhibition after resynthesis (ZIKV NS2B-NS3pro [5]): due to colloidal aggregation
- mode of inhibition (ZIKV NS2B-NS3pro [5]): competitive inhibitors

SMILES: NC(=O)c1ncn([C@@H]2O[C@H](CO)[C@@H](O)[C@H]2O)n1 [Ribavirin]
- CC50 [6]: > 100 µM
- EC50 (ZIKV (PE243)): 4.1 ± 0.35 µM
